Laboratory results: ChEMBL document CHEMBL1131971, “Identification and initial structure-activity relationships of a novel non-peptide quinolone GnRH receptor antagonist” (Bioorg Med Chem Lett, 1999)

Columns and labels:
[1] = target: T1, Gonadotropin-releasing hormone receptor (Rattus norvegicus, UniProt P30969); experiment: Inhibition of [125I]buserelin to GnRH receptor in rat pituitary membranes.; assay type: cell membranes, Membrane
T1 sequence (P30969 whole entry): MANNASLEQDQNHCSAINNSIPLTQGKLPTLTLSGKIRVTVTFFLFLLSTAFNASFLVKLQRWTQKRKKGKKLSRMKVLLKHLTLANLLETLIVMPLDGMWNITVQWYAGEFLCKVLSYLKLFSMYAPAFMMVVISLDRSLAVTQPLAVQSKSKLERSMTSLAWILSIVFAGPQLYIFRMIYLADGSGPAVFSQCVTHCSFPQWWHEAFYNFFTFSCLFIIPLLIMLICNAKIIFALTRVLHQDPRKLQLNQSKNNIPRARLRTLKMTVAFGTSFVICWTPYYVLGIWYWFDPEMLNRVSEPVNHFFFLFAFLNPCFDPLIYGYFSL

[2] = target: T2, Gonadotropin-releasing hormone receptor (Rattus norvegicus) (UniProt P30969); experiment: Inhibitory activity at GnRH receptor in rat pituitary membranes.; assay type: cell membranes; set-up: concentration or dose not given beside the values; settings: concentration not given here
T2 sequence (whole entry): T1 sequence (P30969 whole entry)

Structure (SMILES): Cc1cc(C)cc(-c2c(O)nc3cc(Cl)ccc3c2OCC2CCCNC2)c1 (stereo not drawn)
- IC50 [1]: 0.5 µM

Structure (SMILES): Cc1cc(C)cc(-c2c(OC3CCN(C)CC3)c3ccc(Cl)cc3[nH]c2=O)c1
- IC50 [1]: 1.3 µM

Structure (SMILES): CN1CCCCC(Oc2c(-c3ccccc3)c(O)nc3cc(Cl)ccc23)C1 (stereo not drawn)
- IC50 [1]: 7 µM

Structure (SMILES): Cc1cc(C)cc(-c2c(O)nc3ccc(C)cc3c2OCC2CCCN(C)C2)c1 (stereo not drawn)
- inhibition [2]: < 50%

Structure (SMILES): Oc1nc2cc(Cl)ccc2c(OCc2ccccc2)c1-c1ccccc1
- inhibition [2]: < 50%

Structure (SMILES): Cc1cc(C)cc(-c2c(OCCCN3CCCCC3)c3ccc(Cl)cc3[nH]c2=O)c1
- IC50 [1]: 7.5 µM

Structure (SMILES): Cc1cc(C)cc(-c2c(O)nc3ccc(Cl)cc3c2OCC2CCCN(C)C2)c1 (stereo not drawn)
- inhibition [2]: < 50%

Structure (SMILES): Cc1cc(C)cc(-c2c(OCC3CCCN(C)C3)c3ccc(Cl)cc3[nH]c2=O)c1 (stereo not drawn)
- IC50 [1]: 0.3 µM

Structure (SMILES): Cc1cc(C)cc(-c2c(OCCC3CCCCN3C)c3ccc(Cl)cc3[nH]c2=O)c1 (stereo not drawn)
- IC50 [1]: 0.2 µM

Structure (SMILES): CN1CCCCC1COc1c(-c2ccccc2)c(=O)[nH]c2cc(Cl)ccc12 (stereo not drawn)
- IC50 [1]: 9 µM

Structure (SMILES): Cc1cc(C)cc(-c2c(O)nc3cc([N+](=O)[O-])ccc3c2OCC2CCCN(C)C2)c1 (stereo not drawn)
- IC50 [1]: 1.4 µM

Structure (SMILES): CN(C)CCOc1c(-c2ccccc2)c(O)nc2cc(Cl)ccc12
- inhibition [2]: < 50%

Structure (SMILES): Cc1cc(C)cc(-c2c(O)nc3cc(Cl)ccc3c2OCC2CCCCN2C)c1 (stereo not drawn)
- IC50 [1]: 4 µM

Structure (SMILES): Cc1cc(C)cc(-c2c(O)nc3cc(Cl)ccc3c2OCCC2CCCN2C)c1 (stereo not drawn)
- IC50 [1]: 0.2 µM

Structure (SMILES): Oc1nc2cc(Cl)ccc2c(OCc2ccccn2)c1-c1ccccc1
- IC50 [1]: 10 µM

Structure (SMILES): Cc1cc(C)cc(-c2c(O)nc3cc(Cl)ccc3c2OCC2CN(C)CCO2)c1 (stereo not drawn)
- IC50 [1]: 1.4 µM

Structure (SMILES): Cc1cc(C)cc(-c2c(O)nc3cc(Cl)ccc3c2OCC2CCN(C)C2)c1 (stereo not drawn)
- IC50 [1]: 0.5 µM

Structure (SMILES): Oc1nc2cc(Cl)ccc2c(OCc2ccncc2)c1-c1ccccc1
- inhibition [2]: < 50%

Structure (SMILES): Cc1cc(C)cc(-c2c(O)nc3cc(Cl)ccc3c2OCC2CCNCC2)c1
- inhibition [2]: < 50%

Structure (SMILES): Cc1cc(C)cc(-c2c(O)nc3cccc(Cl)c3c2OCC2CCCN(C)C2)c1 (stereo not drawn)
- inhibition [2]: < 50%

Structure (SMILES): Cc1cc(C)cc(-c2c(OCCC3CCCCN3C)c3ccc(Br)cc3[nH]c2=O)c1 (stereo not drawn)
- IC50 [1]: 0.15 µM

Structure (SMILES): O=C1c2ccccc2C(=O)N1CCCOc1c(-c2ccccc2)c(O)nc2cc(Cl)ccc12
- inhibition [2]: < 50%

Structure (SMILES): Cc1cc(C)cc(-c2c(O)nc3cc(F)ccc3c2OCC2CCCN(C)C2)c1 (stereo not drawn)
- inhibition [2]: < 50%

Structure (SMILES): NCCCOc1c(-c2ccccc2)c(O)nc2cc(Cl)ccc12
- inhibition [2]: < 50%

Structure (SMILES): CN1CCCC(COc2c(-c3ccccc3)c(O)nc3cc(Cl)ccc23)C1 (stereo not drawn)
- IC50 [1]: 4 µM

Structure (SMILES): Cc1cc(C)cc(-c2c(O)nc3cc(Cl)ccc3c2OCC(C)CN(C)C)c1 (stereo not drawn)
- IC50 [1]: 6.3 µM

Structure (SMILES): Oc1nc2cc(Cl)ccc2c(OCc2ccc3ccccc3n2)c1-c1ccccc1
- inhibition [2]: < 50%

Structure (SMILES): CN(C)CCCOc1c(-c2ccccc2)c(O)nc2cc(Cl)ccc12
- IC50 [1]: 9 µM

Structure (SMILES): Cc1cc(C)cc(-c2c(O)nc3ccc([N+](=O)[O-])cc3c2OCC2CCCN(C)C2)c1 (stereo not drawn)
- inhibition [2]: < 50%

Structure (SMILES): Oc1nc2cc(Cl)ccc2c(OCc2cccnc2)c1-c1ccccc1
- inhibition [2]: < 50%

Structure (SMILES): Cc1cc(C)cc(-c2c(O)nc3c(Cl)cccc3c2OCC2CCCN(C)C2)c1 (stereo not drawn)
- inhibition [2]: < 50%

Structure (SMILES): Cc1cc(C)cc(-c2c(OCC3CCCN(C)C3)c3ccc(C)cc3[nH]c2=O)c1 (stereo not drawn)
- IC50 [1]: 3.9 µM

Structure (SMILES): COC(=O)c1ccc2c(OCC3CCCN(C)C3)c(-c3cc(C)cc(C)c3)c(O)nc2c1 (stereo not drawn)
- inhibition [2]: < 50%

Structure (SMILES): COc1ccc2nc(O)c(-c3cc(C)cc(C)c3)c(OCC3CCCN(C)C3)c2c1 (stereo not drawn)
- inhibition [2]: < 50%

Structure (SMILES): Cc1cc(C)cc(-c2c(O)nc3cc(Cl)ccc3c2OCC2CCCCN(C)C2)c1 (stereo not drawn)
- IC50 [1]: 1.3 µM

Structure (SMILES): Cc1cc(C)cc(-c2c(OCCC3CCCCN3C)c3ccc(C(F)(F)F)cc3[nH]c2=O)c1 (stereo not drawn)
- IC50 [1]: 0.1 µM

Structure (SMILES): Cc1cc(C)cc(-c2c(OCCC3CCCCN3C)c3cc([N+](=O)[O-])c(Cl)cc3[nH]c2=O)c1 (stereo not drawn)
- IC50 [1]: 0.032 µM

Structure (SMILES): Cc1cc(C)cc(-c2c(O)nc3cc(Cl)ccc3c2OC2CCCN(C)CC2)c1 (stereo not drawn)
- IC50 [1]: 0.3 µM
